Source: US20260185169A1, “MOLECULAR SIGNATURES TO PREDICT LONG-TERM LIVER FIBROSIS PROGRESSION” (THE BOARD OF REGENTS OF THE UNIVERSITY OF TEXAS SYSTEM, priority 2022, published 2026)

System: FPS and molecular pathways
Test: Modulation of FPS and molecular pathways in hepatic transcriptome (RNA-Seq, CES/GSEI) in CENTAUR trial biopsies
Type: in vivo, human
Conditions: for modulation of FPS genes: cenicriviroc arm
From the text: Archived formalin-fixed liver tissues from index biopsy were used for histological assessment in all patients (FIG. 1 and Table 1A-11) to confirm no to minimal fibrosis (METAVIR fibrosis stage F0 or F1). The PLS validation set 1 (and FPS derivation set 1) is a case-control series of 43 chronic hepatitis C patients from a prior cohort study consecutively diagnosed and followed at Johns Hopkins and Massachusetts General Hospital between 1998 and 2010. Twenty-five patients were co-infected with HIV and on anti-retroviral therapies. The patients were regularly followed up with ultrasound elastography at median interval of 1.1 (IQR: 0.6-2.0) years. Liver stiffness measurement >7.0 and >9.5 kPa were regarded as indication of F2 and F3 fibrosis, respectively. The PLS validation set 2 (and FPS derivation set 2) is a case-control series of 38 patients who consecutively underwent liver transplantation for HCV-related cirrhosis and protocol liver biopsies at year 1, 2, and 5 after transplantation (and additional biopsies as needed to evaluate graft rejection, which were excluded) at Baylor University between 2002 and 2007. Median number of biopsies was 8 (IQR: 6-9) per patient with median interval between serial biopsies of 8.6 (IQR: 0.3-12.6) months. […] The FPS derivation set 3 is a cross-sectional series of 31 NAFLD patients who underwent diagnostic liver biopsy at Hiroshima University between 2003 and 2015. The FPS derivation set 4 is a cross-sectional series of 309 NAFLD patients who underwent diagnostic liver biopsy (F0 or F1 fibrosis) at Massachusetts General Hospital between 2009 and 2016. […] The cases were defined as patients who had F-stage increase of one stage or more in the follow-up biopsy. The FPS validation set 2 includes 78 patients with fibrotic liver diseases from various etiologies, for which de-identified fresh liver tissues were available from standard-care hepatic resection for organotypic ex vivo tissue culture at University of Texas Southwestern and Mount Sinai. The FPS validation set 3 consists of NASH patients with F1-F3 fibrosis who underwent liver biopsy before and after 1-year treatment with cenicriviroc (n=9) or placebo (n=10) in the phase Ilb CENTAUR trial (NCT02217475). Decrease of one or more fibrosis stage was regarded as anti-fibrotic response. The serum surrogate FPS was assessed in archived de-identified serum samples from 79 patients with chronic liver diseases. The FPSec validation set is a cohort of 122 patients with compensated (Child-Pugh class A) cirrhosis patients with mixed etiologies enrolled at University of Michigan between 2004 and 2006 as reported in our previous study. Hepatic decompensation was defined as newly developed massive ascites, hepatic encephalopathy, bleeding from gastroesophageal varices, or liver transplantation. The study was approved by institutional review board at respective institutions with written informed consent or exemption for use of archived de-identified samples (protocol numbers: STU062018-058, STU072018-071, 2010P000220/PHS, HS13-00159).
Total RNA was isolated from fixed tissue sections by using High Pure RNA Paraffin kit (Roche), and assessed for quality by qRT-PCR of RPL13A. Total RNA from the PCLS tissues was isolated using RNeasy kit (Qiagen). RNA samples (100-200 ng) were subjected to the PLS/FPS assay implemented in the nCounter platform (NanoString), and transcriptome profiling of the CENTAUR trial samples was performed by RNA-Seq (TrueSeq RNA Access, Illumina). Expression of BCL2, COL1A1, and ACTA2 genes was measured by qRT-PCR (Table 3). Serum protein profiling was performed by using xMAP assay (Luminex). […]

[1] = Fibrosis not improved, NASH patients, Hallmark set, Cellular signaling
[2] = Fibrosis not improved, NASH patients, Hallmark set, Inflammatory response, immunity
[3] = Fibrosis not improved, NASH patients, Hallmark set, Metabolism, biosynthesis
[4] = Fibrosis not improved, NASH patients, Hallmark set, Pathogenic response
[5] = Fibrosis not improved, NASH patients, Hallmark set, Sex hormone signaling
[6] = Fibrosis not improved, NASH patients, Hallmark set, Stress response
[7] = Fibrosis not improved, NASH patients, Immune cell signature (GSE65136)
[8] = Fibrosis not improved, NASH patients, Nuclear receptor signaling (curated pathway members)
[9] = Fibrosis not improved, NASH patients, PPAR agonists on mouse primary hepatocytes (GSE27948)

**Q.** CCCCOCCOc1ccc(-c2ccc3c(c2)/C=C(/C(=O)Nc2ccc([S@@+]([O-])Cc4cncn4CCC)cc2)CCCN3CC(C)C)cc1 [Cenicriviroc] was tested. Which “NES, Mitotic spindle gene set” value (Fibrosis not improved, NASH patients, Hallmark set, Cell cycle, DNA damage, response) did it give?
**A.** 0.82

**Q.** What about the “NES, Apoptosis gene set” value (Fibrosis not improved, NASH patients, Hallmark set, Cell death) of the same compound?
**A.** 1.38

**Q.** And the “NES, E2F targets gene set” value [1]?
**A.** 1.88

**Q.** What about the “NES, Hedgehog signaling gene set” value [1] of the same compound?
**A.** 1.05

**Q.** What about the “NES, KRAS signaling gene set” value [1] of the same compound?
**A.** 1.63

**Q.** What about the “NES, Myc targets v1 gene set” value [1] of the same compound?
**A.** 2.19

**Q.** What about the “NES, Myc targets v2 gene set” value [1] of the same compound?
**A.** 1.55

**Q.** What about the “NES, Notch signaling gene set” value [1] of the same compound?
**A.** 0.84

**Q.** What about the “NES, PI3K/AKT/mTOR signaling gene set” value [1] of the same compound?
**A.** 1.43

**Q.** And the “NES, TGFβ signaling gene set” value [1]?
**A.** −0.70

**Q.** What about the “NES, TNFα signaling via NF-κB gene set” value [1] of the same compound?
**A.** 0.96

**Q.** What about the “NES, Wnt/β-catenin signaling gene set” value [1] of the same compound?
**A.** 0.87

**Q.** And the “NES, mTORC1 signaling gene set” value [1]?
**A.** 1.93

**Q.** What about the “NES, p53 pathway gene set” value [1] of the same compound?
**A.** 1.03

**Q.** What about the “NES, Allograft rejection gene set” value [2] of the same compound?
**A.** 2.25

**Q.** What about the “NES, IL2 STAT5 signaling gene set” value [2] of the same compound?
**A.** 1.70

**Q.** What about the “NES, IL6 JAK STAT3 signaling gene set” value [2] of the same compound?
**A.** 1.82

**Q.** And the “NES, Inflammatory response gene set” value [2]?
**A.** 1.61

**Q.** What about the “NES, Interferon-α response gene set” value [2] of the same compound?
**A.** 0.83

**Q.** And the “NES, Interferon-γ response gene set” value [2]?
**A.** 1.39

**Q.** What about the “NES, Adipogenesis gene set” value [3] of the same compound?
**A.** −0.72

**Q.** And the “NES, Bile acid metabolism gene set” value [3]?
**A.** −1.36

**Q.** And the “NES, Cholesterol homeostasis gene set” value [3]?
**A.** 0.99

**Q.** What about the “NES, Coagulation gene set” value [3] of the same compound?
**A.** 1.33

**Q.** What about the “NES, Complement gene set” value [3] of the same compound?
**A.** 1.37

**Q.** What about the “NES, Fatty acid metabolism gene set” value [3] of the same compound?
**A.** 0.73

**Q.** And the “NES, Glycolysis gene set” value [3]?
**A.** 1.43

**Q.** What about the “NES, Heme metabolism gene set” value [3] of the same compound?
**A.** −0.95

**Q.** And the “NES, Oxidative phosphorylation gene set” value [3]?
**A.** 1.16

**Q.** And the “NES, Peroxisome gene set” value [3]?
**A.** −1.03

**Q.** And the “NES, Protein secretion gene set” value [3]?
**A.** 1.30

**Q.** What about the “NES, Xenobiotic metabolism gene set” value [3] of the same compound?
**A.** 0.79

**Q.** What about the “NES, Angiogenesis gene set” value [4] of the same compound?
**A.** 1.64

**Q.** What about the “NES, Epithelial mesenchymal transition gene set” value [4] of the same compound?
**A.** 1.98

**Q.** What about the “NES, Androgen response gene set” value [5] of the same compound?
**A.** 1.63

**Q.** What about the “NES, Estrogen response early gene set” value [5] of the same compound?
**A.** 1.07

**Q.** And the “NES, Estrogen response late gene set” value [5]?
**A.** 1.18

**Q.** And the “NES, Hypoxia gene set” value [6]?
**A.** 1.67

**Q.** What about the “NES, Myogenesis gene set” value [6] of the same compound?
**A.** 1.73

**Q.** And the “NES, Reactive oxygen species gene set” value [6]?
**A.** 1.24

**Q.** What about the “NES, UV response up gene set” value [6] of the same compound?
**A.** 1.24

**Q.** And the “NES, Unfolded protein response gene set” value [6]?
**A.** 1.41

**Q.** And the “NES, B cell (naïve) gene set” value [7]?
**A.** 1.70

**Q.** What about the “NES, CD4 T cell (naïve) gene set” value [7] of the same compound?
**A.** 1.93

**Q.** What about the “NES, CD8 T cell gene set” value [7] of the same compound?
**A.** 2.31

**Q.** And the “NES, DC (activate) gene set” value [7]?
**A.** 1.75

**Q.** What about the “NES, Gamma delta T cell gene set” value [7] of the same compound?
**A.** 1.86

**Q.** And the “NES, Macrophage (M1) gene set” value [7]?
**A.** 1.70

**Q.** What about the “NES, Macrophage (M2) gene set” value [7] of the same compound?
**A.** 1.74

**Q.** What about the “NES, Mast cell (active) gene set” value [7] of the same compound?
**A.** 1.50

**Q.** And the “NES, Mast cell (rest) gene set” value [7]?
**A.** 1.71

**Q.** And the “NES, Memory B cell gene set” value [7]?
**A.** 1.67

**Q.** And the “NES, Memory T cell (rest) gene set” value [7]?
**A.** 2.25

**Q.** What about the “NES, Monocyte gene set” value [7] of the same compound?
**A.** 1.50

**Q.** And the “NES, NK cell (rest) gene set” value [7]?
**A.** 1.76

**Q.** What about the “NES, Neutrophil gene set” value [7] of the same compound?
**A.** 1.42

**Q.** And the “NES, Plasma cell gene set” value [7]?
**A.** 1.46

**Q.** And the “NES, Regulatory T cell gene set” value [7]?
**A.** 1.99

**Q.** And the “NES, T follicular helper cell gene set” value [7]?
**A.** 1.85

**Q.** What about the “NES, FXR pathway gene set” value [8] of the same compound?
**A.** −1.04

**Q.** What about the “NES, PPAR signaling gene set (first listed)” value [8] of the same compound?
**A.** −0.88

**Q.** What about the “NES, PPAR signaling gene set (second listed)” value [8] of the same compound?
**A.** −1.00

**Q.** What about the “NES, PPARα pathway gene set (first listed)” value [8] of the same compound?
**A.** −0.62

**Q.** And the “NES, PPARα pathway gene set (second listed)” value [8]?
**A.** −0.77

**Q.** What about the “NES, RAR/RXR pathway gene set” value [8] of the same compound?
**A.** −1.49

**Q.** And the “NES, RXR/VDR pathway gene set” value [8]?
**A.** −1.71

**Q.** What about the “NES, GW7647 (PPARa agonist) gene set” value (Fibrosis not improved, NASH patients, PPAR agonist on human primary hepatocytes (GSE53399)) of the same compound?
**A.** −1.56

**Q.** And the “NES, GW501516 (PPARd agonist) gene set” value [9]?
**A.** −0.92

**Q.** And the “NES, ROSIGLITAZONE (PPARg agonist) gene set” value [9]?
**A.** −1.19

**Q.** What about the “NES, WY14643 (PPARa agonist) gene set” value [9] of the same compound?
**A.** 1.17

**Q.** And the “NES, PDGFRB target gene signature” value (Fibrosis not improved, NASH patients, iLINCS)?
**A.** −0.79

**Q.** And the “modulation of RXR, RAR and FXR pathways” value (both responders and non-responders)?
**A.** no obvious induction

**Q.** What about the “modulation of FPS genes” value (patients with histological fibrosis improvement) of the same compound?
**A.** suppressed or unchanged

**Q.** And the “modulation of FPS genes” value (patients with no fibrosis improvement)?
**A.** generally induced

**Q.** And the “modulation of PPAR pathways” value (fibrosis responders after 1-year treatment, non-responders lack it)?
**A.** enrichment

**Q.** And the “modulation of E2F signaling” value (fibrosis responders only)?
**A.** most strikingly suppressed

**Q.** And the “PPAR α target gene signature (vs δ and γ agonist signatures)” value (transcriptional target gene signatures defined in mouse primary hepatocyte)?
**A.** dominantly induced
